Like-named read-outs stand apart in the source and are kept apart here.
Columns and labels:
[1] = test system: Ba/F3‐FGFR1‐K656E; assay: CCK-8 proliferation assay in Ba/F3 stable cells; type: cell-based; details: Mus musculus
Description: (§1) The Ba/F3 cell lines stably expressing FGFR1, FGFR1‐V561M, FGFR1‐V561F, FGFR1‐K656N, and FGFR1‐K656E were self‐established through electroporation pCDNA3.1‐TEL plasmids using the Amaxa Cell Line Nucleofector Kit V (Lonza, Cologne, Germany). Stable cell lines were selected by G418 (Merck, USA) and then withdrawal of IL‐3 (R&D). […] Parental Ba/F3 cells were maintained in RPMI 1640 supplemented with 10% FBS, 100 U/ml of penicillin, […] of streptomycin, and 10 ng/ml of IL‐3, while all Ba/F3 stable cell lines were cultured in the same medium without IL‐3.
(§2) Cells were seeded in 96‐well plate in complete medium (1000–6000 cells/well) and cultured for overnight. Then the cells were exposed to gradient concentrations (0.0005–10 μM) of compounds. Cell proliferation was analyzed by Cell Counting Kit 8 (CK04, Dojindo Laboratories, Japan) after co‐incubation for a further 72 h. IC50 values were calculated by fitting of concentration–response curves using GraphPad Prism 8.01 software. Each assay was repeated at least three times.
(§3) There is, however, no commercially available FGFR1 mutant kinase to validate this. Therefore, we constructed Ba/F3 model cells stably expressing FGFR1‐WT, K656E, K656N, V561M, and V561F mutations.

[2] = test system: Ba/F3‐FGFR1‐V561F; assay: CCK-8 proliferation assay in Ba/F3 stable cells; type: cell-based; details: Mus musculus
Description: as §1, §2, §3

[3] = test system: Ba/F3‐FGFR1‐V561M; assay: CCK-8 proliferation assay in Ba/F3 stable cells; type: cell-based; details: Mus musculus
Description: as §1, §2, §3

[4] = test system: FGFR1 signal pathway in Ba/F3‐FGFR1‐V561F; assay: Western blot of FGFR1 signal pathway; type: cell-based
Description: (§4) Cells were treated with different concentrations of compound or DMSO for indicated time. Then, cells were lysed with 1 × SDS sample lysis buffer (recommended by CST). […] After blocking with 5% BSA in TBST solution (0.5% Tween‐20) at room temperature for 4 hrs, the membranes were incubated with the corresponding primary antibody (1:2000–1:200) at 4℃ overnight. After washing with TBST for 3–5 times, the HRP‐conjugated secondary antibodies were incubated for 2 hrs. The protein signals were detected with Amersham Imager 600 system (GE, Boston, MA, USA) using an ECL western blotting detection kit (Thermo Fisher Scientific, Waltham, MA, USA).
Cell lysates were separated by sodium dodecyl sulfate‐polyacrylamide gel electrophoresis (SDS‐PAGE) and analyzed by western blot for phosphorylated FGFR1, FGFR1, phosphorylated FRS2, FRS2, phosphorylated AKT (Ser473), AKT, phosphorylated Erk, and Erk. GAPDH was used as a control

[5] = target: T1, FGFR3 (Homo sapiens, UniProt P22607); assay: FRET-based Z′-Lyte kinase assay; type: biochemical
[6] = target: FGFR4 (Homo sapiens, UniProt P22455); assay: FRET-based Z′-Lyte kinase assay; type: biochemical
[7] = target: T2, FGFR1 (Homo sapiens, UniProt P11362); assay: KINOMEscan binding affinity assay
T2 construct: purchased Invitrogen (Waltham, MA, USA)

[8] = target: T1, FGFR3; assay: KINOMEscan binding affinity assay
[9] = target: T3, FGFR3‐G697C (Homo sapiens, UniProt P22607, G697C); assay: KINOMEscan binding affinity assay
T3 construct: purchased KINOMEscan™ (commercial assay)

[10] = test system: Ba/F3 stable cells (FGFR1‐V561F/M and other mutant); assay: CCK-8 proliferation, Ba/F3 stable cells with FGFR1 and mutants (summary); type: cell-based; details: Mus musculus, BaF3; range over Ba/F3 stable cells
Description: as §1, §2, §3

[11] = test system: Ba/F3‐FGFR1; assay: Cell cycle analysis by flow cytometry (propidium iodide); type: cell-based; details: Ba/F3‐FGFR1, 100 nM, 24 h
Description: About 6 × 10^5 cells were re‐suspended in 150 μl of BD Cytofix/Cytoperm buffer solution I for 10 min at room temperature. The cell suspensions were added with BD Cytofix/Cytoperm buffer solution II and incubated with another 10 min at room temperature, and then incubated with 200 μl of propidium iodide buffer (0.1 mg/ml) in the dark for 10 min at 4℃. Assays were performed with a Guava easyCyte flow cytometer (Merck, USA).

[12] = test system: Ba/F3‐FGFR1; assay: Apoptosis assay by flow cytometry (Annexin V / 7-AAD); type: cell-based; details: Ba/F3‐FGFR1, 100 nM, 48 h
Description: After incubation, cells were collected and washed twice with pre‐cold PBS. About 6 × 10^5 cells were resuspended in 100 μl of 1× BD binding buffer solution (#556454, BD), and then stained with 7‐ADD (#559925, BD) and Annexin V‐PE (#556422, BD) in the dark for 15 min. Finally, 400 μl of 1×BD binding buffer solution were added to stop dyeing. The cells were then measured on a Guava easyCyte flow cytometer (Merck, USA).

[13] = test system: Ba/F3‐FGFR1‐V561M xenograft; assay: Mouse xenograft tumor model; type: in vivo, CB17‐SCID mice; details: 20 mg/kg, p.o., q2d (b60 prints Bid)
From the text: All animal studies were approved by the Institutional Animal Care and Use Committee. Male CB17‐SCID mice were purchased from Vital River Laboratory Animal Technology Inc. (Beijing, China). The right flanks of SCID mice were subcutaneously injected with 2 x 10^6 Ba/F3‐FGFR1, Ba/F3‐FGFR1‐V561F, or Ba/F3‐FGFR1‐V561M cells, respectively. When the average tumor volume reached 100–200 mm^3, mice bearing tumor were randomly divided into groups and treated with compounds or vehicle. All the compounds were suspended in 0.5% CMC‐Na aqueous solution. […] The body weight and tumor volume of animals were measured once every 2 days. Tumor volumes were calculated as L×W×W/2, where L and W are the length and width of the tumor, respectively. At the experiment terminal, tumor tissues were dissected, paraffin embedded, and sectioned for hematoxylin and eosin (H&E), immunohistochemistry (IHC), and TUNEL analysis.

[14] = test system: pAKT in NCI‐H716; assay: Western blot of pAKT; type: cell-based; details: NCI‐H716, FGFR2 overexpressed, 3.7 to 300 nM
Description: as §4

[15] = test system: pAKT in SNU‐16; assay: Western blot of pAKT; type: cell-based; details: SNU‐16, FGFR2 overexpressed, 3.7 to 300 nM
Description: as §4

T1 sequence (P22607 23-806): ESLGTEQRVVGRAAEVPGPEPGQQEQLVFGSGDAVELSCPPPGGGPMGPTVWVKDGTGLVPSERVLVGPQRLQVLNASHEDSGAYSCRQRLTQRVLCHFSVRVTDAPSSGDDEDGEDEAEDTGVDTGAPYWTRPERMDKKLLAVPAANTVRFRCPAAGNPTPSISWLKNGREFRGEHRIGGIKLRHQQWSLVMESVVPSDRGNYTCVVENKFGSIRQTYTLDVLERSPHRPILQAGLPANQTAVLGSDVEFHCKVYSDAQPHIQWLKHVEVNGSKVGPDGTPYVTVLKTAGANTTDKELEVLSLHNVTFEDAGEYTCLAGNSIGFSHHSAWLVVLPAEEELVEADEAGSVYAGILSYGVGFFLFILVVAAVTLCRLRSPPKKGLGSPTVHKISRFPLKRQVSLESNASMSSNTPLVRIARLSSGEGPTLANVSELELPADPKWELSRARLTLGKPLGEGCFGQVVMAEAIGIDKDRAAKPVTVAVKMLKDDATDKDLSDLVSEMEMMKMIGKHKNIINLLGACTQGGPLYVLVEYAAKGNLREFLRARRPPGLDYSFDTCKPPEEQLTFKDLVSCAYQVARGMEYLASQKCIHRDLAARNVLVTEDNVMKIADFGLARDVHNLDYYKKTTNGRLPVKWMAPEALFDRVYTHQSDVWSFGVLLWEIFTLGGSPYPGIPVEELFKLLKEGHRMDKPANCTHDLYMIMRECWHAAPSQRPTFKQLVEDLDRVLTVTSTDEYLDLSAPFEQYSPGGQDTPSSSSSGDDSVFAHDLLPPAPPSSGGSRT
T2 sequence (P11362 22-822): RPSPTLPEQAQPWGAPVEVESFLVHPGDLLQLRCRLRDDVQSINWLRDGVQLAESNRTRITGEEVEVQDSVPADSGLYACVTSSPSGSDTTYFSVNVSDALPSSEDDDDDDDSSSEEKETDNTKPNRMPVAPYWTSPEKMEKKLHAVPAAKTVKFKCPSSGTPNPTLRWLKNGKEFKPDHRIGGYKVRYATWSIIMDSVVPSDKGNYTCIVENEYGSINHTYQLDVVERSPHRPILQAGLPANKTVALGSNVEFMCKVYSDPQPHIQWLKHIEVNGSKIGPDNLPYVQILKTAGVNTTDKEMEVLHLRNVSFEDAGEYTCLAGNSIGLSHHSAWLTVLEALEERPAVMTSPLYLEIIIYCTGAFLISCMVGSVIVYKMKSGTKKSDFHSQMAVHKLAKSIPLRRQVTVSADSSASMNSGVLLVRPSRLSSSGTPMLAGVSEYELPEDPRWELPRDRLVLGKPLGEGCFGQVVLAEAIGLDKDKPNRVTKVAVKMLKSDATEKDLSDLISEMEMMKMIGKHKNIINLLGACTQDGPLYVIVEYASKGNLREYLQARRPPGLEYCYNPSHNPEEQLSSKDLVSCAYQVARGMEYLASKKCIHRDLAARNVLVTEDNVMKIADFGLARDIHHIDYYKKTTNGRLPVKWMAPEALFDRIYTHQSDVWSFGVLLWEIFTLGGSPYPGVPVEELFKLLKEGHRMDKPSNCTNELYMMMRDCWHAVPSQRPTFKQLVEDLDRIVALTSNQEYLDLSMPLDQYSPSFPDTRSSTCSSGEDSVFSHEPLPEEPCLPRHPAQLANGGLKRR
T3 sequence (P22607 23-806 G697C): as the sequence (P22607 23-806) above, with G675C counted along it
Sequence of FGFR4 (P22455 22-802): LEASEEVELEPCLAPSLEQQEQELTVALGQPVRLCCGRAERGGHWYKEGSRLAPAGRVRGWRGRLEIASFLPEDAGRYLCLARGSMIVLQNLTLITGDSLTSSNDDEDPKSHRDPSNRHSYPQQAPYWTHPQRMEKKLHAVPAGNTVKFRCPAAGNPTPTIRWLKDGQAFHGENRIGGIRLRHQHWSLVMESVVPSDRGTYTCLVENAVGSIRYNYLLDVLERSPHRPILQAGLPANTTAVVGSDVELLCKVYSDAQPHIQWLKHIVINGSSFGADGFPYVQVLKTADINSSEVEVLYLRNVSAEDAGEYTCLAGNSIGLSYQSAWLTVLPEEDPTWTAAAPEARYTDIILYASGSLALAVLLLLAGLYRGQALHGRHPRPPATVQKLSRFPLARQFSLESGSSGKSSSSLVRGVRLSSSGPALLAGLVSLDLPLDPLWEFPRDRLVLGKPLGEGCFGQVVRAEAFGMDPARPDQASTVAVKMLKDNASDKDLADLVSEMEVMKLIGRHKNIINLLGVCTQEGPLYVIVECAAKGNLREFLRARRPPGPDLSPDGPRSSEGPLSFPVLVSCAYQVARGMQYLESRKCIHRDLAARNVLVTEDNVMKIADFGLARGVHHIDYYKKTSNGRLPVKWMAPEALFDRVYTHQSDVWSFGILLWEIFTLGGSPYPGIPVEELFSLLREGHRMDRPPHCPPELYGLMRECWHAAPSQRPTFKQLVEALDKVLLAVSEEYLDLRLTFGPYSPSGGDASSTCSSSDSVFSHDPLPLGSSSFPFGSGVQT

`CCN1CCN(c2ccc(Nc3cc(N(C)C(=O)Nc4c(Cl)c(OC)cc(OC)c4Cl)ncn3)cc2)CC1` [BGJ398] showed an IC50 ([1]; BaF3, CCK-8, 72 h, read-out: IC50 (μΜ) Ba/F3‐FGFR1‐K656E) of 330 ± 2.9 nM, an IC50 ([1]; BaF3, bound stated, read-out: IC50 Ba/F3‐FGFR1‐K656E) greater than 330 nM and an IC50 ([2]; BaF3, CCK-8, 72 h, read-out: IC50 (μΜ) Ba/F3‐FGFR1‐V561F) of 4250 ± 64 nM. It also gave an IC50 ([2]; BaF3, bound stated, read-out: IC50 Ba/F3‐FGFR1‐V561F) greater than 330 nM, an IC50 ([3]; BaF3, CCK-8, 72 h, read-out: IC50 (μΜ) Ba/F3‐FGFR1‐V561M) of 4380 ± 280 nM and an IC50 ([3]; BaF3, bound stated, read-out: IC50 Ba/F3‐FGFR1‐V561M) greater than 330 nM. For the same compound, the “activation of FGFR1 and its signal pathway” value ([4]; 300 nM) was “no effects”.
With `Cc1ccc(C(=O)Nc2ccc(CN3CCN(C)CC3)c(C(F)(F)F)c2)cc1C#Cc1cnc2[nH]ncc2c1` [GZD824] the IC50 [5] was 8.1 ± 0.15 nM, the EC50 ([5]; Figure 1B curve fit) was 8.2 nM and the IC50 [6] was 30.3 ± 21.7 nM. For the same compound, the Kd [7] was 7.3 ± 0.3 nM, the Kd [8] was 17 ± 1.4 nM and the Kd [9] was 39.5 ± 7.8 nM. For the same compound, the IC50 ([1]; BaF3, 72 h, read-out: IC50 (μΜ) Ba/F3‐FGFR1‐K656E) was 20.6 ± 0.8 nM, the IC50 ([2]; BaF3, 72 h, read-out: IC50 (μΜ) Ba/F3‐FGFR1‐V561F) was 12 ± 0.5 nM and the IC50 ([3]; BaF3, 72 h, read-out: IC50 (μΜ) Ba/F3‐FGFR1‐V561M) was 55 ± 3.7 nM. The IC50 [10] was 8.1 to 55 nM, the G0/G1 phase [11] was 70.88% and the apoptosis [12] was 65.73%. For the same compound, the “tumor growth inhibition (TGI)” value [13] was 49.8%, the “FGFR1 phosphorylation, downstream FRS2 and ERK1/2” value ([4]; 4 h, 3.7 nM to 300 nM) was “dose‐dependent inhibition” and the “effect on pAKT” value [14] was “strongly inhibit”. For the same compound, the “effect on pAKT” value [15] was “strongly inhibit”.
